Here are results for 16 molecules from patent publication US3947466A, “Intermediates and process for the production of certain triazolobenzodiazepines” (priority 1974, dated 1976).

In general, LD50 refers to the dose expected to kill half of the subjects tested. Read a high LD50 as a less toxic substance.

A short description of data set [1]: Chimney test: ability of mice to back up and out of a vertical glass cylinder within 30 seconds. The class given is in vivo. The following applies: Mus musculus, ip. The text has this:
The test determines the ability of mice to back up and out of a vertical glass cylinder within 30 seconds. At the effective dosage, 50% of the mice failed doing it.

Data set [2] can be described thus: Dish test: mice remaining in the dish for more than 3 minutes (tranquilization). The class given is in vivo. The following applies: Mus musculus, ip. The method, then:
Dish test: Mice in Petri dishes (10 cm. diameter, 5 cm. high, partially embedded in wood shavings), climb out in a very short time, when not treated. Mice remaining in the dish for more than 3 minutes indicates tranquilization.

Data set [3] is described as follows: Pedestal test: tranquilized mice stay on the pedestal for more than 1 minute. The following applies: Mus musculus, ip. Format: in vivo. Here is the method: Pedestal Test: The untreated mouse leaves the pedestal in less than a minute to climb back to the floor of the standard mouse box. Tranquilized mice will stay on the pedestal for more than 1 minute. The ED50 (intraperitoneal administration) was 0.8 mg./kg.

The subject of another data set is nicotine salicylate. Nature of the data set: animal or person. Format: in vivo, mice. The settings on record: for ED50: Mus musculus, ip. Here is the method: Nicotine antagonism test: Mice in a group of 6 are injected with the test compound, 8-chloro-1-[(dimethylamino)methyl]-6-phenyl-4H-s-triazolo[4,3-a][1,4]benzodiazepine. Thirty minutes later the mice, including control (untreated) mice, are injected with nicotine salicylate (2 mg./kg.). The control mice show overstimulation, i.e., (1) running convulsions (2) tonic extensor fits; followed by (3) death.

The test system of data set [4] is oxotremorine. The data set can be described thus: animal or person. The following applies: for Oxo (Oxotremorine test): TABLE V; for ED50: Mus musculus, ip, 0.5 h, read-out: ED50, oxotremorine hypothermia antagonism (temperature at least 4° C. higher than control mice). The class given is in vivo, mice (male, Strain CF=Carworth Farms). Here is the method:
Hypothermic tests with oxotremorine: [1-(4-pyrrolidino-2-butynyl)-2-pyrrolidinone].
The present compounds were tested as follows. […] The lowering of the body temperature was measured rectally with an electronic thermometer, before and 30 minutes after drug administration. After the drug administration the mice were kept at 19° C. in cages. A 4° difference between the control mice (oxotremorine alone) and the treated mice (oxotremorine and test compound) was used to indicate the antagonistic action of the test compound.

The subject of another data set is yohimbine hydrochloride. Nature of the data set: in vivo. The following applies: for YO (Yohimbine test): TABLE V; for ED50: Mus musculus, 2 h, read-out: ED50, yohimbine potentiation (causes 50% of the mice to die). The method, then:
(§1) Ten male CF mice, 18-22 g., were injected with the anti-depressant and 30 minutes later with 30 […] hydrochloride (YCl) in saline solution. After two hours, the LD50 were determined.

A further data set in a line: LD50 values in mice. The following applies: mouse, in vivo.
Data set [5] deals with apomorphine hydrochloride. The settings on record: TABLE V.
Data set [6] deals with apomorphine hydrochloride. The data set can be described thus: animal or person. The following applies: Mus musculus, ip, 0.5 h, read-out: ED50, potentiation of apomorphine gnawing.
The test system of a further data set is strychnine sulfate. Nature of the data set: animal or person. The class given is in vivo, mice. The method, then: The test consists in orally administering into groups of 6 mice the test compound, and 30 minutes later 3 mg./kg. strychnine sulfate intraperitoneally. The survivors after 4 hours reflect the activity of the compound as a muscle relaxant and antispasmodic.

Data set [7] deals with oxotremorine. The settings on record: cited from earlier work; for effect on oxotremorine-induced temperature decrease / hypothermic response / hypothermic response: mice, background statement.
Another data set can be described thus: in vivo. The following applies: mouse, in vivo, ip. Here is the method: as §1
Setting [8] is: mice, route not given, TABLE IV.

“Also recorded” adds a separate entry of the source. Where a name gives a salt, the structure may show the parent alone. Read-outs that look alike come from different tables or passages of the source. Some results are limits rather than exact numbers.

`CN(C)Cc1nnc2n1-c1ccccc1C(c1ccccc1Cl)=NC2` [1-[(dimethylamino)methyl]-6-(o-chlorophenyl)-4H-s-triazolo-[4,3-a][1,4]benzodiazepine]: the ED50 in data set [1] (read-out: ED50 Ch) stood at 0.35 mg/kg; in data set [2] (read-out: ED50 D), 0.8 mg/kg; in data set [3] (read-out: ED50 P) it was 22 mg/kg; in the data set on nicotine salicylate (read-out: ED50 Ni) it was 0.15 mg/kg. Further, in the data set on oxotremorine [4], the “Oxo (Oxotremorine test)” value is listed as more than 30. In addition, the “YO (Yohimbine test)” value in the data set on yohimbine hydrochloride is on record as more than 30. In “LD50 values in mice” (TABLE V), the LD50 is more than 100 mg/kg. For the same molecule, the “Ap (Apomorphine test)” value in data set [5] is listed as more than 30.

In the case of `NCc1nnc2n1-c1ccc(Cl)cc1C(c1ccccc1)=NC2` [8-Chloro-1-(aminomethyl)-6-phenyl-4H-s-triazolo[4,3-a][1,4]benzodiazepine], in the data set with oxotremorine [4], the “Oxo (Oxotremorine test)” value is on record as 29.7. The “YO (Yohimbine test)” value in the data set on yohimbine hydrochloride was 35.4. In “LD50 values in mice” (TABLE V), this molecule registered an LD50 of more than 100 mg/kg. In [5], the “Ap (Apomorphine test)” value came to 2.6.

Turning to `CCN(CC)Cc1nnc2n1-c1ccc(Cl)cc1C(c1ccccc1Cl)=NC2` [8-Chloro-1-[(diethylamino)methyl]-6-(o-chlorophenyl)-4H-s-triazolo[4,3-a][1,4]benzodiazepine], the ED50 came out at 0.63 mg/kg in [1] (read-out: ED50 Ch), 0.11 mg/kg in data set [2] (read-out: ED50 D), 0.4 mg/kg in [3] (read-out: ED50 P) and 0.08 mg/kg in the data set with nicotine salicylate (read-out: ED50 Ni).

On to `CCN(CC)Cc1nnc2n1-c1ccc(Cl)cc1C(c1ccccc1)=NC2` [8-Chloro-1-[(diethylamino)methyl]-6-phenyl-4H-s-triazolo[4,3-a][1,4]benzodiazepine], for which the ED50 with oxotremorine [4] (mice, oxotremorine 1 mg. i.p., 30 minutes, second TABLE I) came out at 50 mg/kg; with yohimbine hydrochloride, 42 mg/kg; in [6], 14.9 mg/kg. Also, the LD50 in the data set “LD50 values in mice” (setting [8]) was more than 100 mg/kg.

For `CN(C)Cc1nnc2n1-c1ccc(Cl)cc1C(c1ccccc1Cl)=NC2` [8-Chloro-1-[(dimethylamino)methyl]-6-(o-chlorophenyl)-4H-s-triazolo[4,3-a][1,4]benzodiazepine], the ED50 in data set [1] (read-out: ED50 Ch) worked out at 0.2 mg/kg; in [2] (read-out: ED50 D) it was 0.36 mg/kg; in data set [3] (read-out: ED50 P), 0.36 mg/kg; in the data set on nicotine salicylate (read-out: ED50 Ni), 0.63 mg/kg. For the same molecule, the “Oxo (Oxotremorine test)” value with oxotremorine [4] is given as more than 30. Also, the “YO (Yohimbine test)” value in the data set with yohimbine hydrochloride is recorded as more than 30. Besides, in the data set “LD50 values in mice” (TABLE V), the LD50 is more than 100 mg/kg. In data set [5], the “Ap (Apomorphine test)” value worked out at 17.8.

Turning to `CN(C)Cc1nnc2n1-c1ccc(Cl)cc1C(c1ccccc1)=NC2` [8-Chloro-1-[(dimethylamino)methyl]-6-phenyl-4H-s-triazolo[4,3-a][1,4]benzodiazepine], the ED50 in [1] (read-out: effective intraperitoneal dosage for 50% of mice (ED50), chimney test) was 2.3 mg/kg; in [2] (read-out: ED50, dish test) it was 0.28 mg/kg; in data set [3] (read-out: ED50, pedestal test), 0.8 mg/kg; with nicotine salicylate (read-out: dosage protecting 50% of the animals against death (nicotine antagonism)), 0.11 mg/kg; in the data set on strychnine sulfate (Mus musculus, po, 4 h, read-out: effective dosage ED50, antagonism to strychnine), 50 mg/kg; in the data set with oxotremorine [4], 5.3 mg/kg. Moreover, the figures for the ED50 (with yohimbine hydrochloride; in data set [6]) were 12.5 mg/kg and 5.3 mg/kg, respectively. The LD50 in the data set “LD50 values in mice” (setting [8]) was found to be 476 mg/kg.

For the molecule `CN(C)CCC=C1c2ccccc2COc2ccccc21` [Doxepine, reference compound], the ED50 in the data set with oxotremorine [4] was found to be 14.9 mg/kg; in the data set on yohimbine hydrochloride, 17.7 mg/kg; in data set [6], 17.7 mg/kg. The same molecule yielded an LD50 in “LD50 values in mice” (setting [8]) of 126 mg/kg. In addition, the “effect on oxotremorine-induced temperature decrease / hypothermic response” value in the data set on oxotremorine [7] is reported as “antagonized”.

On to `CN(C)CCCN1c2ccccc2CCc2ccccc21` [Imipramine, reference compound], for which the ED50 with oxotremorine [4] was 5.3 mg/kg; with yohimbine hydrochloride it was 4.4 mg/kg; in [6], 17.7 mg/kg.

As to `O=C1CCCN1CC#CCN1CCCC1` [Oxotremorine, 1-(4-pyrrolidino-2-butynyl)-2-pyrrolidinone], the “decrease of body temperature” value in the data set with oxotremorine [7] (0.6 mg./kg. oxotremorine, mouse kept at room temperature) was “about 13 ° F”. The hypothermic response result in the data set with oxotremorine [7] was “produces hypothermic responses in mice; also recorded: very pronounced hypothermia”.

Consider `CN1CCc2cccc3c2[C@H]1Cc1ccc(O)c(O)c1-3` [apomorphine], for which the hypothermic response result in the data set on oxotremorine [7] is listed as “produces hypothermic responses in mice”.

In the case of `CN1[C@@H]2CC[C@H]1C[C@@H](OC(=O)C(CO)c1ccccc1)C2` (stereo partly shown) [atropine], the “effect on oxotremorine-induced temperature decrease / hypothermic response” value with oxotremorine [7] is listed as “blocked”.

In the case of `CNCCCN1c2ccccc2CCc2ccccc21` [desipramine], the “effect on oxotremorine-induced temperature decrease / hypothermic response” value in the data set with oxotremorine [7] is listed as “antagonized”.

For the molecule `CN1CCC[C@H]1c1cccnc1` [nicotine salicylate, reference compound], in the data set on nicotine salicylate (2 mg./kg., injected), the “effect of nicotine salicylate in control mice” value is recorded as “overstimulation”.

On to `O=C1C[C@@H]2OCC=C3CN4CC[C@]56c7ccccc7N1[C@H]5[C@H]2[C@H]3C[C@H]46` [strychnine sulfate, reference compound], for which the “lethality of strychnine sulfate in control mice” value in the data set on strychnine sulfate (3 mg./kg. intraperitoneally) is “routinely fatal to all the control mice”.

For `COc1cc2c(cc1OC)C1CC(=O)C(CC(C)C)CN1CC2` (stereo not shown) [tetrabenazine], in the data set with oxotremorine [7], the hypothermic response result is given as “produces hypothermic responses in mice”.

In “in vivo”, `COC(=O)[C@@H]1[C@H]2C[C@H]3c4[nH]c5ccccc5c4CCN3C[C@@H]2CC[C@@H]1O` [yohimbine hydrochloride] registered a median lethal dose (LD50) of 45 mg/kg. Besides, in the data set on yohimbine hydrochloride (30 mg./kg. (30 mg.), mice), the “lethality of yohimbine hydrochloride alone” value is “non-lethal”.
